Several values for one entry are separate records, joined by “and”; a condition that tells them apart may be missing. Identical values can stand only once. Entries after “also recorded” stand apart in the source; their conditions may differ. Like-named read-outs stand apart in the source and are kept apart here.
Key:
bladder tumors = conditions: Boyland et al. 1964 (GL); Katayama 1972 (DAGDL); cited from earlier work
serum β-glucuronidase [1] = target: T1, serum β-glucuronidase (Rattus norvegicus, UniProt P06760); format: in vivo; conditions: 1.0 mmoles/kg i.g., assayed 1 hour after administration
T1 sequence (P06760 23-648): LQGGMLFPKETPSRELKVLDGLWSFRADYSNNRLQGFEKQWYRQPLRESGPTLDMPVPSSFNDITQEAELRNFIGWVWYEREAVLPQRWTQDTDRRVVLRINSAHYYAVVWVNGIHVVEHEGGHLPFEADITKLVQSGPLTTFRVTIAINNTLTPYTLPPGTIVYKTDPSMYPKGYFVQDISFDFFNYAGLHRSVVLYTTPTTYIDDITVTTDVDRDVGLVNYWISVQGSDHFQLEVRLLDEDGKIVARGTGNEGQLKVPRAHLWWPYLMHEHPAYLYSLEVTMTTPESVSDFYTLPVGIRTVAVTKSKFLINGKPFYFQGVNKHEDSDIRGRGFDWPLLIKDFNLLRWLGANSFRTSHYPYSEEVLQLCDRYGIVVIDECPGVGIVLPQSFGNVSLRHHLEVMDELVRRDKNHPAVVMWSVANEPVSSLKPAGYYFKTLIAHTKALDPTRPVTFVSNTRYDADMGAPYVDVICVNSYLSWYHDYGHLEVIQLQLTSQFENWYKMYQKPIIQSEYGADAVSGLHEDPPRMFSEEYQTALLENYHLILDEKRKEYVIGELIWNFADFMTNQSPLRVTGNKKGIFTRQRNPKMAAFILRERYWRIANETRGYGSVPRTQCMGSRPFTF

[2] = test system: Estrogen and Androgen Levels
60 kd oncofetal protein = test: effect of β-glucuronidase inhibitors on carcinogen induction of the 60 kd factor in plasma (cell-free RNA transport assay); format: in vivo, rat
[3] = Text: In the long term feeding experiments in which CGT intake was over an extended period of time, at the termination of the experiment the following organs were examined macroscopically and weighed: liver, kidneys, adrenals.
The adrenals were slightly (ca 20%) smaller by weight in the group receiving 10% CGT supplemented chow.

bladder tumor = conditions: Miyakawa et al. 1973; DAGDL given at same time as carcinogen; cited from earlier work
serum β-glucuronidase [4] = target: T1, serum β-glucuronidase; test: in vivo; format: in vivo
Protocol: GL was synthesized and microencapsulated to give sustained-release GL (EGL), by an established procedure used to microencapsulate ascorbic acid, as reported in Samejima, M. et al., Chem. Pharm. Bull., (Tokyo) 1982, 30:2894-2899. In this procedure, the GL as a fine powder is added to a stirred mixture of cyclohexane, polyisobutylene as coacervation-inducing agent and ethylcellulose as wall-forming material. The addition of GL is at 78° C., then phase separation is induced by lowering the temperature first to 40° C., then to 25° C. The microcapsules, which have thick walls, are washed with cyclohexane and dried. […] DAGDL, calcium D-glucarate (CGT), and potassium hydrogen D-glucarate (PGT) were synthesized. For comparison of efficacy of the inhibitors, 1,5 mmoles/kg (GL, EGL or DAGDL) or 4.5 mmoles/kg (CGT or PGT) of the inhibitor in 1.0 ml of sesame oil or vehicle only (controls) was administered to rats by stomach tube at zero time. Blood samples were obtained from different rats by cardiac puncture under ether anesthesia. The serum was prepared and assayed for β-glucuronidase activity using a commerical diagnostic kit sold by Sigma Chemical Company, St. Louis, MO. The assay is based on the hydrolysis of phenolphthalein-glucuronide and quantitation of phenolphthalein in alkaline medium at […]. For tests of anti-carcinogencity, the inhibitors were administered by stomach tube in 1.0 ml of sesame oil 30 minutes before and again at 2.5 hours after the carcinogen, for DAGDL, or 3 hours and 30 minutes before the carcinogen, for EGL, CGT, and PGT. The controls received sesame oil only by stomach tube.
At the time periods indicated above blood samples were obtained from rats under ether aneathesia by cardiac puncture, the serum was then prepared and assayed for β-glucuronidase activity using a commercial diagnostic kit sold by Sigma Chem. Co., St. Louis, MO.
For the inhibition of the initiation stage, CGT was given by gavage in two doses (4.5 mmoles/kg/dose) at 3 hours and again at 0.5 hours before carcinogen administration. […] The concentrations of CGT were incorporated into the powdered chow diet. The blood samples were obtained 10 days after the initiation of the CGT feeding.
DAGDL or GL (1.5 mmol/kg) in 1.0 ml of sesame oil, or vehicle only (controls) was administered to rats by stomach tube at zero time. […] The serum was prepared and assayed for β-glucuronidase activity using a commercial diagnostic kit sold by Sigma Chemical Company, St. Louis, MO. The assay is based on the hydrolysis of phenolphthalein-glucuronide and quantitation of phenolphtalein in alkaline medium at 550 nm.

[5] = test system: diabetes, rheumatoid arthritis, toxemia in pregnancy and bladder cancer; conditions: review of the medical literature; cited from earlier work
[6] = test system: MNU-induced mammary tumors; test: MNU-induced mammary carcinogenesis; format: in vivo, rat; conditions: MNU 40 mg/kg i.v., DAGDL 2 dose schedule; FIG. 10
Protocol: In this experiment, MNU (40 mg/kg) was administered to 50 day old Sprague Dawley female rats by i.v. injection. One half of the rats were co-administered DAGDL according to a 2 dose schedule.

[7] = rat, in vivo, ip
Protocol: TCDD was administered i.p. in a single dose of 40 μg/kg in sesame oil (0.5 ml) to 125 gm female Sprague Dawley rats. One group of 4 rats received 2 doses of CGT (4.5 mmole/kg) in sesame oil (1.0 ml) by stomach tube at 3 hours and a second dose at 0.5 hours before treatment with TCDD. A second, TCDD-treated group received oil only in place of the CGT. Control rats received oil only by stomach tube and i.p. injection.

[8] = +DAGDL (1.5% DAGDL diet), female Sprague Dawley rats
[9] = +DAGDL (1.5% DAGDL diet), male Sprague Dawley rats
[10] = carcinogen 7,12-Dimethylbenz[a]anthracene, 21 days post-treatment
[11] = second dose of DAGDL 3 hours after the initial dose, 2.5 hours after carcinogen
[12] = +CGT, 50 day old Sprague Dawley female rats

CC(=O)O[C@@H]1C(=O)O[C@H]2[C@@H]1OC(=O)[C@@H]2OC(C)=O [DAGDL, 2,5-di-O-acetyl-D-glucaro-1,4;6,3-dilactone]
clinical effect in prevention of bladder tumors (bladder tumors): only a slight beneficial effect | reduction of serum β-glucuronidase activity (serum β-glucuronidase [1]): 50% | sex hormone levels ([2]; 1.5% DAGDL diet, male and female rats): reduces sex hormone levels; also recorded: lower steady state level of steroid hormones | 17-Ketosteroids (urinary excretion) [2, 8]: 12 μg/100 g body wt × 24 hrs | Estradiol (serum) [2, 8]: 140 pmol/L | 17-Ketosteroids (urinary excretion) [2, 9]: 17 μg/100 g body wt × 24 hrs | Testosterone (serum) [2, 9]: 9 nmol/L | 60 kd factor in plasma, MNU with inhibitor (60 kd oncofetal protein; 504 h): 1.2 Units | Percent Inhibition of the induction of the 60 kd factor (60 kd oncofetal protein; carcinogen 2-Acetylaminofluorene, 21 days post-treatment): 66% | Percent Inhibition of the induction of the 60 kd factor (60 kd oncofetal protein; [10]): 77% | Percent Inhibition of the induction of the 60 kd factor (60 kd oncofetal protein; carcinogen Benzo[a]pyrene, 21 days post-treatment): 76% | decrease of adrenal weight ([3]; DAGDL supplemented chow): 20-30% | effect on bladder tumor incidence with 2-AAF (bladder tumor): did not disclose any significant difference | time to 50% inhibition of serum β-glucuronidase (serum β-glucuronidase [4]; 1.5 mmol/kg): ≤ 0.5 h | time for which 50% inhibition or greater is maintained (serum β-glucuronidase [4]; 1.5 mmol/kg, single dose): approximately 3 hours | reduction of serum β-glucuronidase activity (serum β-glucuronidase [4]; 1.5 mmoles/kg i.g., assayed 1 hour after administration): 80% | effect of carcinogen co-administration on degree of β-glucuronidase inhibition (serum β-glucuronidase [4]; carcinogen co-administered): not influenced significantly | inhibition at 1500 µmol/kg (serum β-glucuronidase [4]; rat, 1.5 mmol/kg, within 0.5 hour of administration): 50% | duration of approximately 50% inhibition after second dose (serum β-glucuronidase [4]; [11]): up to 6 hours | inhibition of β-glucuronidase after second dose (serum β-glucuronidase [4]; [11]): approximately 50% | time-course of serum β-glucuronidase inhibition (serum β-glucuronidase [4]; single i.g. dose 1.5 mmoles/kg (GL, DAGDL, EGL)): marked and prolonged inhibition; also recorded: more prolonged inhibition | treatment of existing diseases [5]: unsuccessful | inhibition of mammary tumor development [6]: approx. 4 fold

O=C([O-])[C@@H](O)[C@@H](O)[C@H](O)[C@@H](O)C(=O)[O-].[Ca+2] [CGT, calcium D-glucarate]
effect on TCDD toxicity [7]: definite anti-"TCDD toxicity" effect | 17-Ketosteroids (urinary excretion) [2, 12]: 13 μg/100 g body wt × 24 hrs | Estradiol (serum) [2, 12]: 39 pg/mL | reduction of serum estradiol level ([2]; CGT diet, female rats): 24% | reduction of urinary 17-ketosteroid level ([2]; CGT diet, female rats): 55% | Percent Inhibition of the induction of the 60 kd factor (60 kd oncofetal protein; carcinogen 1,2-Dimethylhydrazine, 21 days post-treatment): 60% | Percent Inhibition of the induction of the 60 kd factor (60 kd oncofetal protein; carcinogen 1-Nitropyrene, 21 days post-treatment): 50% | Percent Inhibition of the induction of the 60 kd factor (60 kd oncofetal protein; carcinogen 2-Naphthylamine, 21 days post-treatment): 49% | Percent Inhibition of the induction of the 60 kd factor (60 kd oncofetal protein; carcinogen 3-Methylcholanthrene, 21 days post-treatment): 43% | Percent Inhibition of the induction of the 60 kd factor (60 kd oncofetal protein; [10]): 83% | Percent Inhibition of the induction of the 60 kd factor (60 kd oncofetal protein; carcinogen N-Nitrosodibutylamine, 21 days post-treatment): 53% and > 50% | Percent Inhibition of the induction of the 60 kd factor (60 kd oncofetal protein; carcinogen N-Nitrosodiethylamine, 21 days post-treatment): 41% | Percent Inhibition of the induction of the 60 kd factor (60 kd oncofetal protein; carcinogen N-Nitrosodimethylamine, 21 days post-treatment): 76% | Percent Inhibition of the induction of the 60 kd factor (60 kd oncofetal protein; carcinogen N-Nitrosoethylurea, 21 days post-treatment): 68% | Percent Inhibition of the induction of the 60 kd factor (60 kd oncofetal protein; carcinogen N-Nitrosomethylurea, 21 days post-treatment): 69% | Percent Inhibition of the induction of the 60 kd factor (60 kd oncofetal protein; carcinogen Safrole, 21 days post-treatment): 45% | Percent Inhibition of the induction of the 60 kd factor (60 kd oncofetal protein; rat, in vivo): 86% and 70% | decrease of adrenal weight ([3]; rat, in vivo): ~20% | food intake and weight-gain compared with chow diet ([3]; rat, in vivo): essentially identical to those on chow diet | liver and kidney weights compared with controls ([3]; rat, in vivo): essentially identical in weight | reduction of serum β-glucuronidase activity (serum β-glucuronidase [4]; rat, in vivo): 50% and 80% | reduction of serum β-glucuronidase levels by dietary CGT (serum β-glucuronidase [4]; rat, in vivo): 50% | time-course of serum β-glucuronidase inhibition (serum β-glucuronidase [4]; rat, in vivo): prolonged inhibition
